Reference: ChEMBL document CHEMBL4819073, “Synthesis and biological evaluation of phenothiazine derivative-containing hydroxamic acids as potent class II histone deacetylase inhibitors” (Eur J Med Chem, 2021)
Active and inactive are the calls of the source. No cut-off for these calls is given here.

Key:
[1] = biological target: T1, Histone deacetylase 7 (Homo sapiens, UniProt Q8WUI4); test: Inhibition of N-terminal GST-tagged human HDAC7 (518 to end residues) expressed in baculovirus-infected Sf9 cells using Boc Lys(TFA)-AMC as substrate preincubated for 5 mins followed by substrate addition and further incubated for 30 mins by fluorogenic assay
T1 sequence (Q8WUI4 whole entry): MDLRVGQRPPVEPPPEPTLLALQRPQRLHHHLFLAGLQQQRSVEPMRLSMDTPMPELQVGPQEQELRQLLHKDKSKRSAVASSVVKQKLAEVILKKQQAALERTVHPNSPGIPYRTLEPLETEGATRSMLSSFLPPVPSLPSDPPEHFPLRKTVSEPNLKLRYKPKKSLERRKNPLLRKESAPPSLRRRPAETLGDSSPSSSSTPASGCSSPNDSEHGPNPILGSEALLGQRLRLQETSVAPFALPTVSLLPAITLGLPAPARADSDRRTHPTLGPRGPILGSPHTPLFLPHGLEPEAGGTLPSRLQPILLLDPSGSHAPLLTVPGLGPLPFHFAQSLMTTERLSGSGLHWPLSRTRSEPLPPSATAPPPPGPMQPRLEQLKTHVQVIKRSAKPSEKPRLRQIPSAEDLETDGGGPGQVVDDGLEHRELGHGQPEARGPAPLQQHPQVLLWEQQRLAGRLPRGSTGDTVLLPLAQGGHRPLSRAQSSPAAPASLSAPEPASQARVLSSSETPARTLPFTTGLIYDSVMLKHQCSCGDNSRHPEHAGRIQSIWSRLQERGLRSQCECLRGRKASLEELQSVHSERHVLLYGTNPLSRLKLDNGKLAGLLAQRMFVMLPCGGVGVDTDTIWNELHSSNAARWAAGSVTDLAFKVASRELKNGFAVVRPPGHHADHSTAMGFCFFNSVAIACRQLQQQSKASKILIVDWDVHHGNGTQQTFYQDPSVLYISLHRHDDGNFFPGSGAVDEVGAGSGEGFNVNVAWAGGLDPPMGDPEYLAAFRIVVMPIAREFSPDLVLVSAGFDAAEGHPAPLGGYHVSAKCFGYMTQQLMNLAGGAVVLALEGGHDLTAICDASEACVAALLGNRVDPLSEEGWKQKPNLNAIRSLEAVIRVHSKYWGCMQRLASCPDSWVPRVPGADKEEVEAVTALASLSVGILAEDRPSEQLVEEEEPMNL

[2] = biological target: Histone deacetylase 4 (Homo sapiens, UniProt P56524); test: Inhibition of N-terminal GST-tagged and C-terminal His-tagged human HDAC4 (627 to 1084 residues) expressed in baculovirus infected Sf9 cells using Boc Lys(TFA)-AMC as substrate preincubated for 5 mins followed by substrate addition and further incubated for 30 mins by fluorogenic assay
Histone deacetylase 4, sequence (P56524 whole entry, the tested form may be a part): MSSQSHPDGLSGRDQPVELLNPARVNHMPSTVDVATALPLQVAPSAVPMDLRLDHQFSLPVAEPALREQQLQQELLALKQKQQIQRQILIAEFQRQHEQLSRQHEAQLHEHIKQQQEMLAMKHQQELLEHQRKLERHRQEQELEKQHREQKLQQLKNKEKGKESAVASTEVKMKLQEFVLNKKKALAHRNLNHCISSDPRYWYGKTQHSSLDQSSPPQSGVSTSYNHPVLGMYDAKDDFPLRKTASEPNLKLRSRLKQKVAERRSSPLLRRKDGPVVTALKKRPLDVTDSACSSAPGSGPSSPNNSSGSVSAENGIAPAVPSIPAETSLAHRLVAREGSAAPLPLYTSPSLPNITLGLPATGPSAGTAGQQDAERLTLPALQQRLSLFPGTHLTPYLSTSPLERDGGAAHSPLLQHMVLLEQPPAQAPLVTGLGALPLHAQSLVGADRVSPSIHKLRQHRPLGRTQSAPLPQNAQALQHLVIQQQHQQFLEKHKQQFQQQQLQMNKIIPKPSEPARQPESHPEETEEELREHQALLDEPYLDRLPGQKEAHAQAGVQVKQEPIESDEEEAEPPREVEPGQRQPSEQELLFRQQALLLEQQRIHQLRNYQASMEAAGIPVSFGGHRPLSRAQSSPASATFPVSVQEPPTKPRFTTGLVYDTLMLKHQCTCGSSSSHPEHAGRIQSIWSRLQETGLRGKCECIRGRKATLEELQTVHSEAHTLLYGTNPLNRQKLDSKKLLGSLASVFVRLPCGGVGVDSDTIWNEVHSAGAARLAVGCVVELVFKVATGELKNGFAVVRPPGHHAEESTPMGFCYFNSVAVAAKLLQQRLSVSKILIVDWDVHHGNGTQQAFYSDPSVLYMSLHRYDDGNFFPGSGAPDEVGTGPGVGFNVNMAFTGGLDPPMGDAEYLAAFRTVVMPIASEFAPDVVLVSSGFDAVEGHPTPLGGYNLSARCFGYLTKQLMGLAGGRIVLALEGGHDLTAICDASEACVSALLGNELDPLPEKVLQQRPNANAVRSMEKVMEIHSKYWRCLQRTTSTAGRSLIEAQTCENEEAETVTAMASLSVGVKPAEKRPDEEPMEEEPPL

[3] = biological target: Histone deacetylase 9 (Homo sapiens, UniProt Q9UKV0); test: Inhibition of C-terminal His-tagged human HDAC9 (604 to 1066 residues) expressed in baculovirus-infected Sf9 cells using Boc Lys(TFA)-AMC as substrate preincubated for 5 mins followed by substrate addition and further incubated for 30 mins by fluorogenic assay
Histone deacetylase 9, sequence (Q9UKV0 whole entry, the tested form may be a part): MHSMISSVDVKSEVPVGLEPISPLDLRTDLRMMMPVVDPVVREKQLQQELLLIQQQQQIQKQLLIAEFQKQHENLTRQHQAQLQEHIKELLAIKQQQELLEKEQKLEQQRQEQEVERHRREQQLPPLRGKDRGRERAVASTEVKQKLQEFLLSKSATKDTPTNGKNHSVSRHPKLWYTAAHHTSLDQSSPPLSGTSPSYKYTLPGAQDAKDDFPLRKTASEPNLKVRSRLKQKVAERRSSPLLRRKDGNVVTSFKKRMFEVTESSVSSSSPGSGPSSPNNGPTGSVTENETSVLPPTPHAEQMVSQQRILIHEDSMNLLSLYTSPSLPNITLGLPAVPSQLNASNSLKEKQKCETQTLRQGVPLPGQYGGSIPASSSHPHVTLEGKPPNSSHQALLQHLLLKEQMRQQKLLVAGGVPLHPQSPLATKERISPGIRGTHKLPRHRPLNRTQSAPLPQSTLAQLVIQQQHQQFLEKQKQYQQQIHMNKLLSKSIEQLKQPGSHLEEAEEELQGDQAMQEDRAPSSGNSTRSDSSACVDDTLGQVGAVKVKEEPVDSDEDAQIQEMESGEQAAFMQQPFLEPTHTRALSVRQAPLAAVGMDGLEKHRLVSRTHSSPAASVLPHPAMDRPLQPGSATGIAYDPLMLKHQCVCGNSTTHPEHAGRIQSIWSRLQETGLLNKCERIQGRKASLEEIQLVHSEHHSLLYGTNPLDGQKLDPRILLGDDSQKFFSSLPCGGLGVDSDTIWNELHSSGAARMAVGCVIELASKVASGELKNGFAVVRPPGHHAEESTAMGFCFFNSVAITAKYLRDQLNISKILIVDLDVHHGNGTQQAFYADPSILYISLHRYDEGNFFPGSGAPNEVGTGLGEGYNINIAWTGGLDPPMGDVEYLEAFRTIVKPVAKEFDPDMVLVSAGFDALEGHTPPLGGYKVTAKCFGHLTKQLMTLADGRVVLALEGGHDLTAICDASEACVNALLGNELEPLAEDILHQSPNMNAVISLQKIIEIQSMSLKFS

[4] = biological target: T2, Protein deacetylase HDAC6 (Homo sapiens, UniProt Q9UBN7); test: Inhibition of N-terminal GST-tagged full length human HDAC6 expressed in baculovirus-infected Sf9 cells using Boc-Lys (acetyl)-AMC as substrate preincubated for 5 mins followed by substrate addition and further incubated for 30 mins by fluorescence based assay
T2 sequence (Q9UBN7 whole entry): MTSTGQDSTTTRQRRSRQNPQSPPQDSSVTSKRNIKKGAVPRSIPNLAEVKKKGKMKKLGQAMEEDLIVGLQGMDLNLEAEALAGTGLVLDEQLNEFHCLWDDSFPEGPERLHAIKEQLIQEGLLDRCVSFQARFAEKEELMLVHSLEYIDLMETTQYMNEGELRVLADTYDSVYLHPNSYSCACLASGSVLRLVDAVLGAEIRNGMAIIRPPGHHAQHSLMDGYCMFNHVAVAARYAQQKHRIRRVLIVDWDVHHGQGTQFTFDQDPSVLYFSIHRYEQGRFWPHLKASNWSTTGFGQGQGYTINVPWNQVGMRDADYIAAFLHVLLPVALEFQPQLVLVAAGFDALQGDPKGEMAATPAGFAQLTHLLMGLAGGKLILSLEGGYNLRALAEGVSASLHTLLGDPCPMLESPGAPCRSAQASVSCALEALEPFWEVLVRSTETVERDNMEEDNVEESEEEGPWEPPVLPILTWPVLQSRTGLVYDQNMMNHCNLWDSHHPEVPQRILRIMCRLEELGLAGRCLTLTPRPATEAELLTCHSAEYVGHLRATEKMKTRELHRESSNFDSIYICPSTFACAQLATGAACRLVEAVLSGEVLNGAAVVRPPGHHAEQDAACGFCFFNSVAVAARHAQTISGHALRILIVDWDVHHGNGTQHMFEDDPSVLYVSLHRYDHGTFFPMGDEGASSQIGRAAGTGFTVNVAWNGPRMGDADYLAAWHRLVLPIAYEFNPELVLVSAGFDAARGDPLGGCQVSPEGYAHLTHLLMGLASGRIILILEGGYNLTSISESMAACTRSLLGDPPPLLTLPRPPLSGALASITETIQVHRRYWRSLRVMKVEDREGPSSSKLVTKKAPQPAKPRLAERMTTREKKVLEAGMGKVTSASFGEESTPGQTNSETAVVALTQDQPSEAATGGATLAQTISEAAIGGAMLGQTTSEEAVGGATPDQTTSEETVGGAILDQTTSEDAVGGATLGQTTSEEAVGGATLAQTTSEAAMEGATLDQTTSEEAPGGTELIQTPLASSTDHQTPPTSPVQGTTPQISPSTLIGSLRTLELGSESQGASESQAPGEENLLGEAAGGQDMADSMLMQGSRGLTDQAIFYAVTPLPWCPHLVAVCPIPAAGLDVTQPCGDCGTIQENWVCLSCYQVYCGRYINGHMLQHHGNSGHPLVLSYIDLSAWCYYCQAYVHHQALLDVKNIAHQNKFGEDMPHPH

[5] = biological target: Histone deacetylase; test: Inhibition of HDAC in human HeLa nuclear extracts using Boc-Lys (acetyl)-AMC as substrate preincubated for 5 mins followed by substrate addition and further incubated for 30 mins by fluorescence based assay; format: subcellular, Nucleus
[6] = system: SH-SY5Y; test: Induction of neurite outgrowth in human SH-SY5Y cells incubated for 5 days by immunostaining analysis; format: functional, cell-based; conditions: dose 1.25-5 µM, time 5.0 day
[7] = biological target: Acetylcholinesterase (Homo sapiens) (UniProt P22303); test: Inhibition of AChE (unknown origin)
Acetylcholinesterase (Homo sapiens), sequence (P22303 whole entry): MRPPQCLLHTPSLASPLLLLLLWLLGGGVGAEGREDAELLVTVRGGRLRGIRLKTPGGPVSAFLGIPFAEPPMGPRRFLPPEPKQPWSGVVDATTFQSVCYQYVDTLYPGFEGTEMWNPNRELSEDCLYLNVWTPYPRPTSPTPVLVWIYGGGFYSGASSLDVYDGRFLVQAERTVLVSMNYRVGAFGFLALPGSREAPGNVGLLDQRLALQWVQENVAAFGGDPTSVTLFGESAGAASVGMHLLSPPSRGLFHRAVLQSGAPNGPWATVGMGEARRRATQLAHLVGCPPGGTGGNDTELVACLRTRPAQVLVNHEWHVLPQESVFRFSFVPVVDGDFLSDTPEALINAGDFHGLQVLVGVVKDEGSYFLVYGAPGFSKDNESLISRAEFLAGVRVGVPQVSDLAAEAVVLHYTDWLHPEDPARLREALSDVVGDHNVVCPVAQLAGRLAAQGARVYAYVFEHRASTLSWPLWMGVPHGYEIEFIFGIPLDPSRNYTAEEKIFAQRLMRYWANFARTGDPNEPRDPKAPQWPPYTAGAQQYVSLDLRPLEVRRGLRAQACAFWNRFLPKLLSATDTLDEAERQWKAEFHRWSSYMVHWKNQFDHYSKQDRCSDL

[8] = system: SH-SY5Y; test: Induction of neurite outgrowth in human SH-SY5Y cells at 2.5 uM incubated for 5 days by immunostaining analysis; format: functional, cell-based; conditions: time 5.0 day
[9] = system: SH-SY5Y; test: Neuroprotective activity against H2O2-induced cell death in human SH-SY5Y cells assessed as cell viability at 40 uM incubated for 3 hrs by MTT assay; format: functional; conditions: read-out: Activity
[10] = biological target: Amyloid-beta precursor protein (Homo sapiens) (UniProt P05067); test: Inhibition of amyloid beta (1 to 42) (unknown origin) aggregation upto 10 uM by ThT fluorescence assay; conditions: dose microM <=10
Amyloid-beta precursor protein (Homo sapiens), sequence (P05067 whole entry): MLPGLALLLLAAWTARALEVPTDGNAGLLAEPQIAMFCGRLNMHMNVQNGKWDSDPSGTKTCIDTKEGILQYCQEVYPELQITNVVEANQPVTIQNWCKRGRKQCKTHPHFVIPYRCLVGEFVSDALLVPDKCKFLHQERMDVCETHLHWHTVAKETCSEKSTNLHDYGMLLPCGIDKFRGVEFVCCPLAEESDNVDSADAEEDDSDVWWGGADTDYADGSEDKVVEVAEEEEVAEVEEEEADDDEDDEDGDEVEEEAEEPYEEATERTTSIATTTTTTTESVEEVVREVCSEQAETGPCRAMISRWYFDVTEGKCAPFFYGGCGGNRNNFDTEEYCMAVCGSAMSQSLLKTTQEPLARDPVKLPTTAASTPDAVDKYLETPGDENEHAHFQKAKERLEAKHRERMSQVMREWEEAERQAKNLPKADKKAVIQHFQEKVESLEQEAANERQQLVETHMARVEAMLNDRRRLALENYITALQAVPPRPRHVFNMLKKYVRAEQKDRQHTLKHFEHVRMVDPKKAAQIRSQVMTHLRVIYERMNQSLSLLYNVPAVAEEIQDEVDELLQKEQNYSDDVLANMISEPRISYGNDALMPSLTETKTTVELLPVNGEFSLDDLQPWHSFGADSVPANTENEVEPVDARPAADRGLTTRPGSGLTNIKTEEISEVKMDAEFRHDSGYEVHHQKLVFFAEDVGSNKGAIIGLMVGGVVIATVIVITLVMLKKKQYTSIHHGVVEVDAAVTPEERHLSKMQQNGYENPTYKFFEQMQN

[11] = biological target: Class 1 histone deacetylase (Mus musculus) (UniProt Q8VH37+O09106+P70288+O88895); test: Inhibition of class I HDAC in mouse Neuro2a cells assessed as increase in acetylated histone H3 level at 0.039 to 20 uM incubated for 24 hrs by Western blot analysis; format: cell-based; conditions: dose 0.039-20 µM
[12] = system: N2a; test: Cytotoxicity against mouse Neuro2a cells assessed as reduction in cell viability at 20 uM incubated for 24 hrs by Cell Titer-Glo 2.0 Luminescent cell assay; format: cell-based
[13] = biological target: T3, Protein deacetylase HDAC6 (Mus musculus) (UniProt Q9Z2V5); test: Inhibition of HDAC6 in mouse Neuro2a cells assessed as increase in acetylated alpha-tubulin levels incubated for 24 hrs by Western blot analysis; format: cell-based; conditions: dose 0.039-20 µM
T3 sequence (whole entry): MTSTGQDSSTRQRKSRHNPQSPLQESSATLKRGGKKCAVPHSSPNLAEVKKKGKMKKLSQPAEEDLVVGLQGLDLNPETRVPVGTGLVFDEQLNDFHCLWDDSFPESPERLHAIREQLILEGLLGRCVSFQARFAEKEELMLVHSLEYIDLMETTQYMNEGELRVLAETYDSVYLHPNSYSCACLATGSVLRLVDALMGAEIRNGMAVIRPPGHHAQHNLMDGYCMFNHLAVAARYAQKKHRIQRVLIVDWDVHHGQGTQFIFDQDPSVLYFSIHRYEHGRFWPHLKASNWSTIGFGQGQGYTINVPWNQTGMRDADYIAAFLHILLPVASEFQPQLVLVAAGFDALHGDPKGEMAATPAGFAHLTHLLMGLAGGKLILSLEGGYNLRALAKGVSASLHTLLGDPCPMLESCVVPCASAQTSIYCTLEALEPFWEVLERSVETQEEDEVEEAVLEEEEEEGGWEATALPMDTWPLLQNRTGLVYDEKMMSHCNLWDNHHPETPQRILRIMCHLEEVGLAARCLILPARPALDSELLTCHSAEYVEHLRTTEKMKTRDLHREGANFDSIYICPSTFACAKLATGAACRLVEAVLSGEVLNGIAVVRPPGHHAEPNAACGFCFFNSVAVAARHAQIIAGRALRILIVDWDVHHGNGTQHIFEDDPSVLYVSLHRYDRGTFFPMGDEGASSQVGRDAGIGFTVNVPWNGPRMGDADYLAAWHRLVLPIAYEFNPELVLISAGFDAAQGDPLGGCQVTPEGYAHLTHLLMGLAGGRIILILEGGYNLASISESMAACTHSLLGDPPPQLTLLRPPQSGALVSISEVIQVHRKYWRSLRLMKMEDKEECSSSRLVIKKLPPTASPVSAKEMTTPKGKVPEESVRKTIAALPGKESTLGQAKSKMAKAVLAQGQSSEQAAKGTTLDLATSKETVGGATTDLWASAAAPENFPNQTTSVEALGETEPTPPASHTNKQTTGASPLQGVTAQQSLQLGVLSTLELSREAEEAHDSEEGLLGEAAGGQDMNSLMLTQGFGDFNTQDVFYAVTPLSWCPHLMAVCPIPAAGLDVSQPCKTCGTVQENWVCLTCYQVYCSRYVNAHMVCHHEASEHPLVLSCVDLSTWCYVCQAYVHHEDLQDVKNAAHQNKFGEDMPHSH

[14] = system: SH-SY5Y; test: Neuroprotective activity against H2O2-induced cell death in human SH-SY5Y cells assessed as increase in cell viability incubated for 3 hrs by MTT assay; format: functional, cell-based; conditions: dose 2.5-40 µM

SMILES | IC50 [1] [µM] | IC50 [2] [µM] | IC50 [3] [µM] | IC50 [4] [µM] | IC50 [5] [µM] | other results
O=C(NO)c1ccc(CN2c3ccccc3Sc3ccc(C(F)(F)F)cc32)cc1 | 2.24 | 7.59 | 2.58 | 0.0142 | 0.84 | 
O=C(NO)c1ccc(CN2c3ccccc3Sc3ccc(Cl)cc32)cc1 | 1.36 | 3.6 | 0.35 | 0.0095 | 0.29 | 
O=C(NO)c1ccc(CN2c3ccccc3[S+]([O-])c3ccccc32)cc1 | 5.15 | 6.62 | 27.6 | 0.0205 | 2.76 | 
C/C(=N\O)c1ccc2c(c1)N(Cc1ccc(C(=O)NO)cc1)c1ccccc1S2 | 1.09 | 3.85 | 4.34 | 0.0108 | 0.33 | 
O=C(NO)c1ccc(Nc2c3ccccc3nc3ccc(Br)cc23)cc1 |  |  |  |  | 0.16 | 
NC(=O)c1ccc2c(c1)N(Cc1ccc(C(=O)NO)cc1)c1ccccc1S2 |  |  |  |  |  | Activity [6]: Dose-Dependent Effect; inhibition [7]: inactive; Activity [8]: Active; viability at 40 µM [9]: 70.8%; inhibition [10]: inactive; inhibition [11]: Active; Activity [12]: Non-Toxic; inhibition [13]: Dose-Dependent Effect; Activity [14]: Dose-Dependent Effect
COc1ccc2c(c1)N(Cc1ccc(C(=O)NO)cc1)c1ccccc1S2 | 1.55 | 4.76 | 29.7 | 0.0189 | 0.35 | 
NC(=O)c1ccc2c(c1)N(Cc1ccc(C(=O)NO)cc1)c1ccccc1[S+]2[O-] (configuration not stated) | 9.38 | 12.9 | 4.2 | 0.0143 | 1.69 | 
CSc1ccc2c(c1)N(Cc1ccc(C(=O)NO)cc1)c1ccccc1[S+]2[O-] (configuration not stated) | > 40 | > 40 | 0.72 | 0.0359 | 1.68 | 
O=C(NO)c1ccc(CN2c3ccccc3Sc3ccccc32)cc1 |  |  |  |  |  | Activity [12]: Non-Toxic; inhibition [13]: Dose-Dependent Effect
CSc1ccc2c(c1)N(Cc1ccc(C(=O)NO)cc1)c1ccccc1S2 | 2.25 | 5.8 | 3.26 | 0.0094 | 0.68 | 
NC(=O)c1ccc2c(c1)N(Cc1ccc(/C=C/C(=O)NO)cc1)c1ccccc1S2 | 5.74 | 3.26 | 8.27 | 0.037 | 0.02 | 
